Test results taken from paper PMC7116804 (Green chemistry : an international journal and green …, 2019).

Molecular target: Aa-ADH (Aromatoleum aromaticum, UniProt Q5P5I4)
Test: oxidation of diol […] isomer mixture, product analysis
Type: biochemical
Settings: NAD+ 1 mM recycled by NOX; Tris-HCl pH 7.5, 30 °C, 24 h

Chain of Aa-ADH (Q5P5I4 2-249): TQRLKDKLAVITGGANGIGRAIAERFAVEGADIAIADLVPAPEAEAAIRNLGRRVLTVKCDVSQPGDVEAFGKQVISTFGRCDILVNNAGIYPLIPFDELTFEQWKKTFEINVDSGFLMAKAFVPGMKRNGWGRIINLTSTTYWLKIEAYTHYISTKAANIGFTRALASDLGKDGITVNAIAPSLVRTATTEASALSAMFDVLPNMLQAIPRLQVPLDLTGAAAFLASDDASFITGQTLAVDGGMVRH

C[C@H](O)[C@@H](O)c1ccccc1 [1S,2S-3]
oxidation of diol 3 isomer mixture, product analysis: Aa-ADH oxidized 1R,2R-3, 1S,2S-3 and 1R,2S-3

C[C@@H](O)[C@H](O)c1ccccc1 [1R,2R-3]
oxidation of diol 3 isomer mixture, product analysis: Aa-ADH oxidized 1R,2R-3, 1S,2S-3 and 1R,2S-3
